Laboratory results from PubChem BioAssay (NCI).
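These data come from cells grown in 96-well plates and exposed to compound for 48 hours at five concentrations. TGI is the concentration that stops growth completely.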

How the values were obtained:
Test in all cases: NCI-60 cell line screen, 48 h
SW-620 colon = system: SW-620 colon
LOX IMVI melanoma = system: LOX IMVI melanoma
OVCAR-8 ovarian = system: OVCAR-8 ovarian
NCI-H226 lung = system: NCI-H226 lung
HT29 colon = system: HT29 colon
HS 578T breast = system: HS 578T breast
K-562 leukemia = system: K-562 leukemia
MALME-3M melanoma = system: MALME-3M melanoma
MCF7 breast = system: MCF7 breast
CCRF-CEM leukemia = system: CCRF-CEM leukemia
MDA-N = system: MDA-N
SNB-19 CNS = system: SNB-19 CNS
IGROV1 ovarian = system: IGROV1 ovarian
SNB-75 CNS = system: SNB-75 CNS
EKVX NSCLC = system: EKVX NSCLC
A498 renal = system: A498 renal
NCI/ADR-RES ovarian = system: NCI/ADR-RES ovarian
HCT-15 colon = system: HCT-15 colon
COLO 205 colon = system: COLO 205 colon
NCI-H460 lung = system: NCI-H460 lung
SF-295 CNS = system: SF-295 CNS
OVCAR-4 ovarian = system: OVCAR-4 ovarian
ACHN renal = system: ACHN renal
HCC-2998 colon = system: HCC-2998 colon
OVCAR-5 ovarian = system: OVCAR-5 ovarian
PC-3 prostate = system: PC-3 prostate
KM12 colon = system: KM12 colon
BT-549 breast = system: BT-549 breast
MDA-MB-231 breast = system: MDA-MB-231 breast
UACC-257 melanoma = system: UACC-257 melanoma
SK-MEL-2 melanoma = system: SK-MEL-2 melanoma
T-47D breast = system: T-47D breast
NCI-H522 lung = system: NCI-H522 lung
SK-MEL-5 melanoma = system: SK-MEL-5 melanoma
SF-539 CNS = system: SF-539 CNS
U251 CNS = system: U251 CNS
A549 NSCLC = system: A549 NSCLC
M14 melanoma = system: M14 melanoma
SF-268 CNS = system: SF-268 CNS
NCI-H23 lung = system: NCI-H23 lung
HL-60(TB) leukemia = system: HL-60(TB) leukemia
MDA-MB-435 = system: MDA-MB-435
HCT-116 colon = system: HCT-116 colon
SK-OV-3 ovarian = system: SK-OV-3 ovarian
UACC-62 melanoma = system: UACC-62 melanoma
MOLT-4 leukemia = system: MOLT-4 leukemia
RXF 393 renal = system: RXF 393 renal
CAKI-1 renal = system: CAKI-1 renal
SK-MEL-28 melanoma = system: SK-MEL-28 melanoma
HOP-92 NSCLC = system: HOP-92 NSCLC
DU-145 prostate = system: DU-145 prostate
786-0 renal = system: 786-0 renal
TK-10 renal = system: TK-10 renal
UO-31 renal = system: UO-31 renal
SN12C renal = system: SN12C renal
OVCAR-3 ovarian = system: OVCAR-3 ovarian

Measured: TGI

O=P(O)(O)CC1OC(CO)C(O)C1O (stereo unspecified)
> 100 µM: all assays above
